Experimental data reported in publication PMC9084593 (Cell reports, 2022).

What was measured:
GlmM = target: T1, GlmM (Streptococcus pneumoniae, UniProt Q04JI8); experiment: GlmU-coupled DTNB colorimetric mutase assay, […] nm; assay type: biochemical; conditions: 0.4 mM GlcN-6-P, 2 mM acetyl CoA, 5 mM MgCl2, pH 7.5, 37°C
T1 sequence (Q04JI8 1-450): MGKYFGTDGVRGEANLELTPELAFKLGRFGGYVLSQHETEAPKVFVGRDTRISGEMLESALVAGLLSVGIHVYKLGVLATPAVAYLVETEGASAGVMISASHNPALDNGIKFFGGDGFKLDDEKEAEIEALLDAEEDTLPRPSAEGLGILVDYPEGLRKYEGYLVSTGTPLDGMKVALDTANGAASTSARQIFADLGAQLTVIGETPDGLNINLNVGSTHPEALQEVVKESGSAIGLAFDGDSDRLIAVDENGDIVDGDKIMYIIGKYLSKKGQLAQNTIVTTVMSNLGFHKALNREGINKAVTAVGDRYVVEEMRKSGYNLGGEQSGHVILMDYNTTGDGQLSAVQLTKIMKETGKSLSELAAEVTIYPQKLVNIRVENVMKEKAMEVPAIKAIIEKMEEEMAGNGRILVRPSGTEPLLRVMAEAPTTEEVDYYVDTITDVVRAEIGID

GlmU = GlmU (Streptococcus pneumoniae, UniProt Q04KU2); experiment: DTNB colorimetric acetyltransferase assay, […] nm; assay type: biochemical; conditions: 0.4 mM GlcN-1-P, 1 mM acetyl CoA, 5 mM MgCl2, pH 7.5, 37°C
Sequence of GlmU (Q04KU2 whole entry): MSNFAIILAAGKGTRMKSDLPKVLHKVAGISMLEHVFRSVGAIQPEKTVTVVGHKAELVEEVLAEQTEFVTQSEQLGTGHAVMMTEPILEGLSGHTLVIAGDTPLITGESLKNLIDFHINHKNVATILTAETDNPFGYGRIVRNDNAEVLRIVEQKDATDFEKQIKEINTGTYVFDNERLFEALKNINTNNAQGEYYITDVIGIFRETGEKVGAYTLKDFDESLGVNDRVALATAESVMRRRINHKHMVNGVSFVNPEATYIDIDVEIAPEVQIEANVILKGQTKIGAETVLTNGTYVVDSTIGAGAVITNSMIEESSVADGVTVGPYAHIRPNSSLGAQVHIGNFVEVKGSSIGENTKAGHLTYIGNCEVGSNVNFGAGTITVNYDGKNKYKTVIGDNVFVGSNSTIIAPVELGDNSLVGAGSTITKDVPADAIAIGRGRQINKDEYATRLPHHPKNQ

| SMILES | GlmU-coupled DTNB colorimetric mutase assay, 412 nm (GlmM) | DTNB colorimetric acetyltransferase assay, 412 nm (GlmU) |
| --- | --- | --- |
| N[C@H]1C(O)O[C@H](COP(=O)(O)O)[C@@H](O)[C@@H]1O (some centres unmarked) [GlcN-6-P] | The glucosamine-6-phosphate (GlcN-6-P) mutase activity of GlmM was assayed | – |
| N[C@H]1[C@@H](OP(=O)(O)O)O[C@H](CO)[C@@H](O)[C@@H]1O [GlcN-1-P] | – | The GlcN-1-P acetyltransferase activities of the GlmU and the GlmUE315AH330A variant were measured |
